Test results: ChEMBL document CHEMBL6087451, “Design, Synthesis, and Biological Evaluation of 2-Arylaminopyrimidine Derivatives as Dual Cathepsin L and JAK Inhibitors for the Treatment of Acute Lung Injury” (J Med Chem, 2025)
The source made the active and inactive calls. The calls are words filed in the database; no cut-off is given here.

What was measured:
[1] = (§1) Anti-inflammatory activity against HBE cells assessed as inhibition of LPS-induced IL-8 level at 5 uM pretreated for 30 mins followed by LPS treatment for 24 hrs by ELISA relative to control; type: functional; settings: Homo sapiens, time 24.5 hrs
[2] = (§2) Anti-inflammatory activity against HBE cells assessed as inhibition of LPS-induced IL-6 level at 5 uM pretreated for 30 mins followed by LPS treatment for 24 hrs by ELISA relative to control; type: functional; settings: Homo sapiens, time 24.5 hrs
HBE [3] = experiment: as §1; type: functional; settings: Homo sapiens, time 24.5 hrs
[4] = Cytotoxicity against HBE cells assessed as cell survival at 10 uM by MTT assay relative to control; type: toxicity, cell-based; settings: human; for viability at 10 µM: HBE cells, read-out: Survival
HBE [5] = experiment: as §2; type: functional; settings: Homo sapiens, time 24.5 hrs

Row | Compound | inhibition at 5 µM [1] [%] | inhibition at 5 µM [2] [%] | also measured
1 | COc1cccc(Nc2ccnc(Nc3cccc(N)c3)n2)c1OC | 56 | 54 | –
2 | Cn1cc(-c2ccnc(Nc3cccc(F)c3)n2)c2ccccc21 | 56 | 54 | –
3 | Nc1cccc(Nc2nccc(Nc3ccc(F)c(F)c3)n2)c1 | 56 | 54 | –
4 | Nc1cccc(Nc2nccc(Nc3cccc(Cl)c3)n2)c1 | 56 | 54 | –
5 | COc1ccccc1Nc1nccc(-c2cn(C)c3ccccc23)n1 | – | 38 | inhibition (HBE [3]): inactive
6 | Cn1cc(-c2ccnc(N)n2)c2ccccc21 | 38 | 37 | –
7 | Cn1cc(-c2ccnc(Nc3ccccc3)n2)c2ccccc21 | – | 85 | inhibition (HBE [3]): inactive
8 | Cn1cc(-c2ccnc(Nc3ccc(F)cc3)n2)c2ccccc21 | 56 | 54 | –
9 | Cn1cc(-c2ccnc(Nc3cccc(C(=O)O)c3)n2)c2ccccc21 | 56 | 54 | –
10 | Nc1cccc(Nc2nccc(Sc3ccc(F)cc3)n2)c1 | 56 | 54 | –
11 | Nc1cccc(Nc2nccc(Oc3cccc(N)c3)n2)c1 | 56 | 54 | –
12 | Cn1cc(-c2ccnc(Nc3cc(N)ccc3F)n2)c2ccccc21 | 83 | 69 | –
13 | COc1ccccc1Nc1ccnc(Nc2cccc(N)c2)n1 | 56 | 54 | –
14 | CCCCNc1nccc(-c2cn(C)c3ccccc23)n1 | – | – | viability at 10 µM [4]: < 70%; inhibition (HBE [3]): inactive; inhibition (HBE [5]): inactive
15 | Nc1cccc(Nc2nccc(Nc3cccc(C(F)(F)F)c3)n2)c1 | 56 | 54 | –
16 | Cn1cc(-c2ccnc(Nc3ccc(C(F)(F)F)cc3)n2)c2ccccc21 | 56 | 54 | –
17 | Nc1cccc(Nc2nccc(Nc3cccc(Br)c3)n2)c1 | 56 | 54 | –
18 | Nc1cccc(Nc2nccc(Nc3cccc(F)c3)n2)c1 | 56 | 54 | –
19 | Cn1cc(-c2ccnc(Nc3cccc(Cl)c3)n2)c2ccccc21 | 56 | 54 | –
20 | COc1ccc(Nc2ccnc(Nc3cccc(N)c3)n2)cc1 | 56 | 54 | –
21 | Nc1ccc(Oc2ccnc(Nc3cccc(N)c3)n2)cc1 | 56 | 54 | –
22 | COc1cccc(OC)c1Nc1ccnc(Nc2cccc(N)c2)n1 | 56 | 54 | –
23 | COc1ccc(Nc2ccnc(Nc3cccc(N)c3)n2)c(OC)c1 | 56 | 54 | –
24 | Nc1cccc(Nc2nccc(Nc3ccc(Br)cc3)n2)c1 | 56 | 54 | –
25 | CC(C)Nc1nccc(-c2cn(C)c3ccccc23)n1 | – | – | inhibition (HBE [3]): inactive; inhibition (HBE [5]): inactive

Row | Compound | inhibition at 5 µM [1] [%] | inhibition at 5 µM [2] [%] | also measured
26 | COc1cccc(Nc2nccc(-c3cn(C)c4ccccc34)n2)c1 | 56 | 54 | –
27 | Cn1cc(-c2ccnc(Nc3ccc(F)c(N)c3)n2)c2ccccc21 | 56 | 54 | –
28 | COc1ccc(Sc2ccnc(Nc3cccc(N)c3)n2)cc1 | 56 | 54 | –
29 | Nc1cccc(Nc2nccc(Oc3ccc(OC(F)(F)F)cc3)n2)c1 | 56 | 54 | –
30 | Nc1cccc(Nc2nccc(-c3c[nH]c4ccccc34)n2)c1 | – | – | Activity ([4]; hbe, 10 µM): Toxic; inhibition (HBE [3]): Active; inhibition (HBE [5]): Active
31 | Cn1cc(-c2ccnc(Nc3cccnc3)n2)c2ccccc21 | 56 | 54 | viability at 10 µM [4]: < 70%
32 | COc1c(Br)cccc1Nc1ccnc(Nc2cccc(N)c2)n1 | 56 | 54 | –
33 | CCOc1ccc(Nc2ccnc(Nc3cccc(N)c3)n2)cc1 | 56 | 54 | –
34 | Cn1cc(-c2ccnc(Nc3ncccn3)n2)c2ccccc21 | 12 | – | inhibition (HBE [5]): inactive
35 | Nc1cccc(Nc2nccc(Nc3ccc(F)cc3)n2)c1 | 56 | 54 | –
36 | Cn1cc(-c2ccnc(Nc3cccc(C#N)c3)n2)c2ccccc21 | 56 | 54 | –
37 | Nc1cccc(Nc2nccc(Nc3ccc4[nH]ccc4c3)n2)c1 | > 65 | > 65 | –
38 | Nc1cccc(Nc2nccc(Nc3ccccc3)n2)c1 | 56 | 54 | –
39 | Nc1cccc(Nc2nccc(N)n2)c1 | – | – | inhibition (HBE [3]): inactive; inhibition (HBE [5]): inactive
40 | Cn1cc(-c2ccnc(Nc3ccccn3)n2)c2ccccc21 | 56 | 68 | viability at 10 µM [4]: < 70%
41 | Cn1cc(-c2ccnc(Nc3cccc(CC(=O)O)c3)n2)c2ccccc21 | 56 | 54 | –
42 | Cc1ccc(Nc2ccnc(Nc3cccc(N)c3)n2)c(C)c1 | 56 | 54 | –
43 | COc1ccc(N)cc1Nc1nccc(-c2cn(C)c3ccccc23)n1 | 54 | 64 | –
44 | COc1ccccc1Oc1ccnc(Nc2cccc(N)c2)n1 | 56 | 54 | –
45 | Cn1nccc1Nc1nccc(-c2cn(C)c3ccccc23)n1 | 64 | 54 | –
46 | N#Cc1cccc(Nc2ccnc(Nc3cccc(N)c3)n2)c1 | 56 | 54 | –
47 | COc1cccc(Nc2ccnc(Nc3cccc(N)c3)n2)c1 | 56 | 54 | –
48 | Cn1cc(-c2ccnc(Nc3cccc(C(F)(F)F)c3)n2)c2ccccc21 | 56 | 54 | –
49 | COc1ccc(Oc2ccnc(Nc3cccc(N)c3)n2)cc1OC | 56 | 54 | –
50 | Cn1cc(-c2ccnc(Nc3ccc(Cl)c(N)c3)n2)c2ccccc21 | 56 | 54 | –

Row | Compound | inhibition at 5 µM [1] [%] | inhibition at 5 µM [2] [%] | also measured
51 | Cn1cc(-c2ccnc(Nc3ccccc3N)n2)c2ccccc21 | 69 | 61 | –
52 | Nc1cccc(Nc2nccc(Oc3ccccc3)n2)c1 | 56 | 54 | –
53 | Nc1cccc(Nc2nccc(Nc3ccc(C(F)(F)F)cc3)n2)c1 | 56 | 54 | –
54 | CN(c1cccc(N)c1)c1nccc(-c2cn(C)c3ccccc23)n1 | – | – | inhibition (HBE [3]): inactive; inhibition (HBE [5]): inactive
55 | Cn1ccc(Nc2nccc(-c3cn(C)c4ccccc34)n2)n1 | 56 | 54 | –
56 | Nc1cccc(Nc2nccc(Sc3ccc(C(F)(F)F)cc3)n2)c1 | 56 | 54 | –
57 | Cn1cc(-c2ccnc(Nc3ccc(Cl)cc3)n2)c2ccccc21 | 56 | 54 | –
58 | Cc1ccccc1Nc1ccnc(Nc2cccc(N)c2)n1 | 56 | 54 | –
59 | COc1ccc(OC)c(Nc2ccnc(Nc3cccc(N)c3)n2)c1 | 56 | 54 | –
60 | Cc1cccc(Nc2ccnc(Nc3cccc(N)c3)n2)c1C | 56 | 54 | –
61 | COc1cccc(Oc2ccnc(Nc3cccc(N)c3)n2)c1 | 56 | 54 | –
62 | Nc1cccc(Nc2nccc(Sc3ccc(Cl)cc3)n2)c1 | 56 | 54 | –
63 | Nc1cccc(Nc2nccc(Oc3ccc4[nH]ccc4c3)n2)c1 | > 65 | > 65 | –
64 | Nc1cccc(Nc2nccc(Sc3ccc(Br)cc3)n2)c1 | 56 | 54 | –
65 | Cn1cc(-c2ccnc(NC3CCCCC3)n2)c2ccccc21 | – | – | inhibition (HBE [3]): inactive; inhibition (HBE [5]): inactive
66 | Cn1cc(-c2ccnc(NC3CC3)n2)c2ccccc21 | – | – | viability at 10 µM [4]: < 70%; inhibition (HBE [3]): inactive; inhibition (HBE [5]): inactive
67 | Cc1ccc(Oc2nccc(-c3cn(C)c4ccccc34)n2)cc1 | – | – | inhibition (HBE [3]): inactive; inhibition (HBE [5]): inactive
68 | Nc1cccc(Nc2nccc(Nc3ccc(Cl)cc3)n2)c1 | 56 | 54 | –
69 | COc1ccc(Nc2nccc(-c3cn(C)c4ccccc34)n2)cc1 | 56 | 54 | –
70 | COc1ccc(C)cc1Nc1ccnc(Nc2cccc(N)c2)n1 | 56 | 54 | –
71 | Cn1cc(-c2ccnc(Nc3ccc(N)cc3)n2)c2ccccc21 | 56 | 54 | –
72 | COc1cc(OC)cc(Oc2ccnc(Nc3cccc(N)c3)n2)c1 | 56 | 54 | –
73 | CC(C)(C)c1ccc(Nc2ccnc(Nc3cccc(N)c3)n2)cc1 | 56 | 54 | –
74 | Cn1cc(-c2ccnc(Nc3cccc(O)c3)n2)c2ccccc21 | 56 | 54 | –
